In one series the target is T1, MAO-A (Homo sapiens, UniProt P21397).
T1 construct: made in house; host or cells: yeast
T1 sequence (P21397 1-527): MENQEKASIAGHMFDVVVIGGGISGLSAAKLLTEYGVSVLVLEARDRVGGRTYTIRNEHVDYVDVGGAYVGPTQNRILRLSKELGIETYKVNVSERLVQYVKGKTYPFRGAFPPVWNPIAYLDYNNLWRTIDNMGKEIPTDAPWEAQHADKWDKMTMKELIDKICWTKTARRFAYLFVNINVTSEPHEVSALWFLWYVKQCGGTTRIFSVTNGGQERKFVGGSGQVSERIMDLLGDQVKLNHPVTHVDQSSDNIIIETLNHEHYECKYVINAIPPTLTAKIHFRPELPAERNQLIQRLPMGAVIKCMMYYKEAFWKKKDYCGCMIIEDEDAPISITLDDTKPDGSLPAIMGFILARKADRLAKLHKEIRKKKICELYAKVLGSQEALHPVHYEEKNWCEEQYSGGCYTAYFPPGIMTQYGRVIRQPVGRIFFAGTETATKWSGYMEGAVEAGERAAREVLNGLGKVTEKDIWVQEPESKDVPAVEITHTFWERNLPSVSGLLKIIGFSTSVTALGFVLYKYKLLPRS
Kind of series: MAO-A in-vitro assay, human liver enzyme expressed in yeast. Type of series: biochemical. The protocol:
The activity of the compounds of the invention against MAO-A was tested using a standard in-vitro assay based on human liver enzyme expressed in yeast as described in Biochem. Biophys. Res. Commun. 1991, 181, 1084–1088.

In a further series the test system is Streptococcus pneumoniae. The experiment in a line: MIC, Streptococci on agar with 5% defibrinated horse blood. Type of series: cell-based. The conditions noted are these: 5% carbon dioxide, 48 hours. The protocol:
(§1) The following results were obtained on a standard in-vitro test system. The activity is described in terms of the minimum inhibitory concentration (MIC) determined by the agar-dilution technique with an inoculum size of 10^4 CFU/spot. Typically, compounds are active in the range 0.01 to 256 μg/ml. Streptococci and enterococci were tested on agar supplemented with 5% defibrinated horse blood, an inoculum of 10^4 CPU/spot and an incubation temperature of 37° C. in an atmosphere of 5% carbon dioxide for 48 hours—blood is required for the growth of some of the test organisms. Fastidious Gram negative organisms were tested in Mueller-Hinton broth, supplemented with hemin and NAD, grown aerobically for 24 hours at 37° C., and with an innoculum of 5×10^4 CFU/well.

For another series, the system named is Moraxella catarrhalis. Kind of series: MIC, fastidious Gram negative organisms in Mueller-Hinton broth. Type of series: cell-based. The conditions noted are these: Mueller-Hinton broth with hemin and NAD, 24 hours, 5×10^4 CFU/well. The protocol: as §1
Another series deals with Haemophilus influenzae. Described as above. Format: cell-based. The conditions noted are these: Mueller-Hinton broth with hemin and NAD, 24 hours, 5×10^4 CFU/well. The protocol: as §1
The test system of series [1] is Staphylococcus aureus MRQR. The experiment in a line: MIC by agar-dilution, Staphylococci on agar. Format: cell-based. The settings on record: MRQR = methicillin resistant and quinolone resistant, inoculum 10^4 CFU/spot, 37° C., 24 hours. Here is the method: (§2) The following results were obtained on a standard in-vitro test system. The activity is described in terms of the minimum inhibitory concentration (MIC) determined by the agar-dilution technique with an inoculum size of 10^4 CFU/spot. Typically, compounds are active in the range 0.01 to 256 μg/ml.
(§3) Staphylococci were tested on agar, using an inoculum of 10^4 CFU/spot and an incubation temperature of 37° C. for 24 hours—standard test conditions for the expression of methicillin resistance.

For series [2], the system named is Staphylococcus aureus MSQS. The experiment in a line: MIC by agar-dilution, Staphylococci on agar. Format: cell-based. The settings on record: MSQS = methicillin sensitive and quinolone sensitive, inoculum 10^4 CFU/spot, 37° C., 24 hours. The protocol: as §2, §3

≈ marks a conversion by molar mass, not a printed value. Where a name gives a salt, the structure may show the parent alone. Read-outs that look alike come from different tables or passages of the source.

On to `O=C1O[C@@H](Cn2ccnn2)CN1c1ccc(-c2ccc(C3=NO[C@@H](CO)C3)nc2)c(F)c1` [Example 2, (5R)-3-(3-Fluoro-4-{6-[(5R)-5-(hydroxymethyl)-4,5-dihydroisoxazol-3-yl]pyridin-3-yl}phenyl)-5-(1H-1,2,3-triazol-1-ylmethyl)-1,3-oxazolidin-2-one], for which the inhibitory constant (Ki) (in general, the equilibrium dissociation constant of an inhibitor or competing ligand from its target) on MAO-A (read-out: MAO-A Ki) came out at 0.7 µM. Same read-out and setting: to `CC(=O)NC[C@H]1CN(c2ccc(-c3ccc(C4=NO[C@@H](CO)C4)nc3)c(F)c2)C(=O)O1` [Example 4, N-{[(5S)-3-(3-Fluoro-4-{6-[(5R)-5-(hydroxymethyl)-4,5-dihydroisoxazol-3-yl]pyridin-3-yl}phenyl)-2-oxo-1,3-oxazolidin-5-yl]methyl}acetamide] belongs 3 µM. Regarding `COC(=O)N(C)CCCCC(=O)OC[C@@H]1CC(c2ccc(-c3ccc(N4C[C@H](Cn5ccnn5)OC4=O)cc3F)cn2)=NO1` [Example 33, [(5S)-3-(5-{2-fluoro-4-[(5R)-2-oxo-5-(1H-1,2,3-triazol-1-ylmethyl)-1,3-oxazolidin-3-yl]phenyl}pyridin-2-yl)-4,5-dihydroisoxazol-5-yl]methyl 5-[(methoxycarbonyl)(methyl)amino]pentanoate], the melting point (in general, the temperature of the solid-liquid transition) was 82 °C. In turn, `COCCCOC(=O)OC[C@@H]1CC(c2ccc(-c3ccc(N4C[C@H](Cn5ccnn5)OC4=O)cc3F)cn2)=NO1` [Example 29, (5S)-3-(5-{2-fluoro-4-[(5R)-2-oxo-5-(1H-1,2,3-triazol-1-ylmethyl)-1,3-oxazolidin-3-yl]phenyl}pyridin-2-yl)-4,5-dihydroisoxazol-5-yl]methyl 3-methoxypropyl carbonate] yielded a melting point of 142 °C. Molecule `O=C(OC[C@@H]1CC(c2ccc(-c3ccc(N4C[C@H](Cn5ccnn5)OC4=O)cc3F)cn2)=NO1)c1cncnc1` [Example 31] had a melting point of 253 to 264 °C. `CCN(CC)CCC(=O)OC[C@@H]1CC(c2ccc(-c3ccc(N4C[C@H](Cn5ccnn5)OC4=O)cc3F)cn2)=NO1` [Example 11, [(5S)-3-(5-{2-Fluoro-4-[(5R)-2-oxo-5-(1H-1,2,3-triazol-1-ylmethyl)-1,3-oxazolidin-3-yl]phenyl}pyridin-2-yl)-4,5-dihydroisoxazol-5-yl]methyl N,N-diethyl-β-alaninate]: the melting point came out at 167 °C.

In turn, `CN(C)CC(=O)N(C)CCCCC(=O)OC[C@@H]1CC(c2ccc(-c3ccc(N4C[C@H](Cn5ccnn5)OC4=O)cc3F)cn2)=NO1` (as salt: hydrochloride) [Example 38, [(5S)-3-(5-{2-fluoro-4-[(5R)-2-oxo-5-(1H-1,2,3-triazol-1-ylmethyl)-1,3-oxazolidin-3-yl]phenyl}pyridin-2-yl)-4,5-dihydroisoxazol-5-yl]methyl 5-[(N,N-dimethylglycyl)(methyl)amino]pentanoate] registered a melting point of 133 °C.

Consider `CC(=O)NC[C@H]1CN(c2ccc(-c3ccc(C4=NO[C@H](CO)C4)nc3)c(F)c2)C(=O)O1` [Example 3, N-{[(5S)-3-(3-Fluoro-4-{6-[(5S)-5-(hydroxymethyl)-4,5-dihydroisoxazol-3-yl]pyridin-3-yl}phenyl)-2-oxo-1,3-oxazolidin-5-yl]methyl}acetamide], for which the Ki on MAO-A (read-out: MAO-A Ki) was 9 µM. As for `O=C1O[C@@H](Cn2ccnn2)CN1c1ccc(-c2ccc(C3=NO[C@H](CO)C3)nc2)c(F)c1` [Example 1, (5R)-3-(3-Fluoro-4-{6-[(5S)-5-(hydroxymethyl)-4,5-dihydroisoxazol-3-yl]pyridin-3-yl}phenyl)-5-(1H-1,2,3-triazol-1-ylmethyl)-1,3-oxazolidin-2-one], the MIC was 0.02 µg/mL (≈ 0.0456 µM) against Streptococcus pneumoniae; 0.5 µg/mL (≈ 1.14 µM) against Moraxella catarrhalis; 4 µg/mL (≈ 9.12 µM) against Haemophilus influenzae; 0.5 µg/mL (≈ 1.14 µM) in series [1]; 0.25 µg/mL (≈ 0.57 µM) in series [2]. In addition, at MAO-A (human liver enzyme expressed in yeast, read-out: Ki value (MAO-A)), the inhibitory constant (Ki) stood at 20 µM. `CN(C)CC(=O)OCC1CC(c2ccc(-c3ccc(N4C[C@H](Cn5ccnn5)OC4=O)cc3F)cn2)=NO1` (stereo partly drawn) (as salt: hydrochloride) [Example 26, [3-(5-{2-fluoro-4-[(5R)-2-oxo-5-(1H-1,2,3-triazol-1-ylmethyl)-1,3-oxazolidin-3-yl]phenyl}pyridin-2-yl)-4,5-dihydroisoxazol-5-yl]methyl N,N-dimethylglycinate] registered a melting point of 175 to 180 °C. Same read-out and setting: to `NCCC(=O)OC[C@@H]1CC(c2ccc(-c3ccc(N4C[C@H](Cn5ccnn5)OC4=O)cc3F)cn2)=NO1` (as salt: hydrochloride) [Example 8, [(5S)-3-(5-{2-Fluoro-4-[(5R)-2-oxo-5-(1H-1,2,3-triazol-1-ylmethyl)-1,3-oxazolidin-3-yl]phenyl}pyridin-2-yl)-4,5-dihydroisoxazol-5-yl]methyl β-alaninate] belongs 68 to 75 °C.
